# According to patent US8124408B2, “Preparation of inactivated artificial antigen presenting cells and their use in cell therapies” (Janssen Pharmaceutica N.V., priority 2006, dated 2012):
# Where two headings read alike, the source gives them in different places.
# Legend:
# [1] = tested on: lytic virus associated with Drosophila xAPCs; assay: infectivity of xAPC viral stock on Drosophila clone D indicator cells; assay type: cell-based
# Method: Thus, a xAPC culture containing approximately 6×10^8 Drosophila xAPCs (clone B) was collected, suspended in 0.6 ml Schneider's media on ice, and sonicated for 30 seconds. Cell debris was pelleted by centrifugation, and the supernatant collected and layered onto a cesium chloride (CsCl) cushion, which was at a density of 1.2 (20% w/w CsCl), at a ratio of three volumes of supernatant to one volume of CsCl. The supernatant-loaded CsCl cushion was then ultracentrifuged at 25,000 rpm for four hours. Viral fractions were collected and the fraction densities measured. Three milliliter fractions at a density of 1.0 to 1.2 were pooled and dialyzed against phosphate-buffered saline (PBS), generating a viral stock, and the viral stock stored at −80° C. until use. […] Independent cultures (1×10^6 cells/culture) of the Drosophila clone D indicator cell line were incubated at 28° C. with either the treated and untreated viral aliquots. After a three-day incubation period, the indicator cell cultures were harvested and stained with propidium iodide (PI) (1 μg/1×10^6 cells) at 4° C. for 10 minutes. The live and lytic cells were analyzed by FACS, with the results depicted in FIGS. 4A-4C.
# After a three-day incubation period, the percentage of viable cells was quantified in each indicator cell line culture. […]
# baculovirus [2] = assay: baculovirus/Sf9 infectivity assay; assay type: cell-based; conditions: for Virus Titer (10^−4) / Virus Titer (10^−5): UVADEX 5 μg/ml, virus added, Sf9 cells, triplicate
# Method: A baculovirus/Sf9 infectivity assay was used to determine if psoralen-derivative/UVA treatment was sufficient to inactivate viruses associated with virus-infected insect cells. Sf9 insect cells were infected with BacPAK6 viral stock and incubated at room temperature for one hour (BacPAK6 baculovirus rapid titer kit; BD Biosciences Clontech). […] Five days after irradiation, culture supernatants were collected. From these, new viral stocks were prepared via serial dilutions of 10^−3, 10^−4 and 10^−5, respectively. These serially diluted stock dilutions were each used to infect a second set of fresh (i.e., not previously infected) Sf9 cell cultures. This second set of cultures was overlaid with methylcellulose and grown for approximately 48 hours. Culture supernatants of this second set of cultures were discarded and a mouse monoclonal anti-gp64 (baculovirus-specific) protein antibody (Invitrogen) was added. After an inbubation period and several washes to remove unbound anti-gp64 antibody, a goat-anti-mouse polyclonal antibody conjugated to horseradish peroxidase (i.e., secondary antibody obtained from Invitrogen) was added. Unbound secondary antibody was removed with several washes, and […] was added. The number of stained foci was counted and the virus titer (pfu/ml) was calculated according to the manufacturer's instructions.
# Drosophila clone B xAPCs = assay: xAPC proliferation, viable cell count by trypan blue staining; assay type: cell-based
# Source text: (§1) Viable (i.e., live) xAPCs were counted on day 1, day 5, day 9, day 14, and day 16 post-treatment by trypan blue staining of each culture.
# as §1
# CD8^+ T cells [3] = assay: K^b/OVA8 tetramer staining of mouse CD8+ T cells activated with xAPCs; assay type: cell-based, mice
# Method: Lanes 1 and 2, percentage of stained CD8^+ T cells isolated form and activated from wild type mice (B6), as described in FIG. 8A (performed as a positive control).
# IL-2 was added on day three and day five of the xAPC/naïve CD8^+ T cell coculture. The coculture was split on day seven of the coculture period, and on day nine the cultured CD8^+ T cells were collected. An OVA8/MHC tetramer (Beckman Coulter) preparation was prepared and 10 μl was mixed with 1×10^6 CD8^+ T cells/100 μl of FACS buffer (0.5% BSA, 0.2%, NaN3 in PBS). The K^b/OVA8 tetramers consisted of four MHC molecules bound to the OVA8 peptide, which was conjugated to a fluorescent protein. The mixture was incubated at room temperature for 30 minutes and washed in PBS, and then spun down at 400×g for 5 minutes. The cell pellet was resuspended in FACS buffer (500 μl) and immediately read on a FACScan flow cytometry machine at an excitation wavelength of 486 nm-580 nm and an emission wavelength of 586 nm-590 nm.
# baculovirus [4] = assay: baculovirus titer by rapid microtiter assay after UVADEX/UVA treatment of infected Sf9 cells; assay type: cell-based; conditions: UVADEX 5 μg/ml
# Method: The treated cells were then cultured at 28° C. for 4 days. Cultured supernatant was collected and used to infect fresh, uninfected cultures of Sf9 cells seeded in 96-well plates. Baculovirus present in these Sf9 cultures was detected by a rapid microtiter assay (Invitrogen) using a gp64-specific antibody, and baculovirus titers were calculated.
# In a similar experiment, Sf9 cells were infected with the titrated doses of baculovirus as described above. […] The treated cells were then cultured at 28° C. for four days. The culture supernatant was collected and used to infect a new culture of Sf9 cells seeded in 96-well plates. Baculovirus in the Sf9 cells was detected by a rapid microtiter assay (Invitrogen). The culture plates were overlaid with methylcellulose and cultured for 48 hrs. Baculovirus was detected by immunoassay with a gp64-specific antibody (Invitrogen). The number of foci in each well was counted and the virus titer (pfu/ml) of the supernatant of the infected cells was calculated according to the manufacturer's instructions.
# CD8^+ T cells [5] = tested on: CD8^+ T cells
# Source text: Human rIL-2 (20 units/ml) and rIL-7 (30 units/ml) were each added to the culture at day 5. The CD8^+ T cells were restimulated twice on the seventh and fifteenth days of the culture period with non-CD8 adherent cells in PBMC from the same donor in the presence of the MART-1 peptides. The expanded CD8^+ T cells were then stained with MART-1 tetramers (Beckman Coulter) consisting of four MHC molecules bound to the MART-1 peptide, which was conjugated to a fluorescent protein, and analyzed by FACS.
# HLA-A2, B7-1, or ICAM-1 = conditions: UVADEX 5 μg/ml, UVA 0, 5 or 15 minutes
# Method: (§2) FACS analysis was carried out by independently using antibodies specific for human HLA, human B7.1, and ICAM-1, as indicated.
# The xAPC cultures were washed and stained with monoclonal antibodies specific for HLA-A2, B7-1, or ICAM-1 and analyzed by FACS.
# [6] = tested on: xenogenic HLA A2.1, B7-1, B7-2, and β2m transcripts; assay: RT-PCR of xenogenic nucleic acid transcription in xAPC/clone D cocultures; assay type: cell-based, Drosophila; conditions: UVADEX 5 μg/ml and UVA 5, 15 or 30 minutes, 10 weeks coculture with clone D
# Source text: RT-PCR products were then visualized by agarose gel electrophoresis.
# It was possible that xenogenic nucleic acid introduced into the xAPCs might have remained active, even though the xAPCs themselves were rendered nonproliferative. […] Each culture of xAPCs was washed and cocultured for 10 weeks with an indicator Drosophila cell line designated herein as clone D, which is a cell line that has not been modified by introduction of xenogenic nucleic acid. Reverse transcriptase (RT)-PCR reactions using primers specific for xenogenic HLA A2.1, B7-1, B7-2, and β2m transcripts were then performed on extracts of the cocultures.
# HLA-A2, B7-1, and ICAM-1 = assay: FACS of exogenous molecules in xAPC clone B/clone D cocultures; assay type: cell-based, Drosophila; conditions: UVADEX/UVA 5 μg/ml, 10 weeks coculture with clone D
# Method: as §2
# For comparison, γ-radiation-treated xAPC clone B/clone D cocultures and untreated xAPC clone B/clone D cocultures were analyzed by FACS as well.
# The cells from each culture were washed and then and cocultured with clone D indicator cells for 10 weeks. The cocultured cells were collected and aliquoted, and each aliquot was stained with one of HLA-A2, B7-1, and ICAM-1 fluorescein isothiocyanate (FITC)-conjugated monoclonal antibodies (mAbs), respectively. The stained cocultures were then analyzed by FACS.
# CD8^+ T cells [7] = assay: APC function of glutaraldehyde-fixed Drosophila xAPCs; assay type: cell-based; conditions: xAPCs fixed with 0.3% glutaraldehyde
# Source text: Inactivation of Drosophila cells was initially attempted with glutaraldehyde fixation in the absence of preservative.
# [8] = UVA irradiation time 10 minutes
smiles,measurement,setting,value
"COc1c2occc2cc2ccc(=O)oc12 [UVADEX, 9-methoxy-7H-furo[3,2-g]-1-benzopyran-7-one]",infection and lysis of indicator cell culture by serial dilutions of viral stock,"[1]; 5 μg/ml for 10 minutes, dilutions 10^−1 to 10^−9, three-day incubation",almost completely incapable of infecting and lysing the indicator cell culture at all but the lowest dilution tested
same,indicator cell infection or lysis by microscopy,"[1]; viral stock treated 5 μg/ml for 10 minutes, three-day incubation",failed to result in any observable indicator cell infection or lysis
same,infectious virus in viral stock obtained in the supernatant,"baculovirus [2]; 5 mcg/ml 8-MOPs, UVA 320-380 nm for 5 minutes, infected Sf9 cells",does not contain infectious virus
same,Virus Titer (10^−4),baculovirus [2]; UVA irradiation time 5 minutes,0
same,Virus Titer (10^−5),baculovirus [2]; UVA irradiation time 5 minutes,0
same,Virus Titer (10^−4),baculovirus [2]; [8],0
same,Virus Titer (10^−5),baculovirus [2]; [8],0
same,inactivation of Drosophila cells,Drosophila clone B xAPCs; 8-MOPs plus 1 Joule/cm^2 for 2 minutes,sufficient to inactivate Drosophila cells
same,cytotoxicity at 5 µg/mL,"Drosophila clone B xAPCs; Drosophila melanogaster, light or radiation study, read-out: inhibition of viability of xAPC cultures",~50%
same,viable xAPCs detected,"Drosophila clone B xAPCs; two weeks after UVADEX/UVA treatment, any treated culture",almost no viable cells were detected
same,percentage of CD8^+ T cells stained with K^b/OVA tetramer versus non-treated xAPCs,CD8^+ T cells [3]; MyD88 knock-out (MyD88^−/−) mice,no increase
same,percentage of CD8^+ T cells stained with K^b/OVA tetramer versus non-treated xAPCs,CD8^+ T cells [3]; wild type (C57BL/6 (B6)) mice,higher percentage
same,baculovirus titer of culture supernatant,baculovirus [4]; ten-minute UVA,no detectible baculovirus titer
same,baculovirus titer of culture supernatant,baculovirus [4]; twenty-minute UVA,no detectible baculovirus titer
same,Percent p/MHC tetramers of CD8^+ T cells (% Tetr + CD8^+),"CD8^+ T cells [5]; Donor 1, MART-1 tetramer",0.95%
same,Percent p/MHC tetramers of CD8^+ T cells (% Tetr + CD8^+),"CD8^+ T cells [5]; Donor 2, MART-1 tetramer",11.55%
same,Percent p/MHC tetramers of CD8^+ T cells (% Tetr + CD8^+),"CD8^+ T cells [5]; Donor 3, MART-1 tetramer",15.07%
same,Percent p/MHC tetramers of CD8^+ T cells (% Tetr + CD8^+),"CD8^+ T cells [5]; Donor 4, MART-1 tetramer",43.33%
same,surface expression level of the three exogenous molecules,"HLA-A2, B7-1, or ICAM-1",essentially the same
same,"xenogenic HLA A2.1, B7-1, B7-2, and β2m transcripts",[6],absence of detectable levels
same,"expression of HLA-A2, B7-1, and ICAM-1 in cocultures","HLA-A2, B7-1, and ICAM-1",undetectable levels
O=CCCCC=O [glutaraldehyde],"CD8^+ T cell activation, less than unfixed cells",CD8^+ T cells [7],2 fold
same,"antigen-specific proliferation of CD8^+ T cells, less than unfixed cells",CD8^+ T cells [7],2.5- to 6 fold
same,generation of CD8^+ T cells capable of lysing target cells,CD8^+ T cells [7],to a lesser degree than unfixed cells
